Laboratory results: patent US20120132797A1, “MEANS AND METHODS FOR DIAGNOSING THYROID DISORDERS” (BASF SE, priority 2009, published 2012)

Test system: Wistar (Crl:WI(Han)) rats
Assay: Mass spectrometry-based plasma metabolite profiling of rats treated with known inducers of thyroid function impairment
Type: in vivo, rat
Settings: ratio of group medians vs controls
Procedure, shortened: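 Rats aged 10-11 weeks, 5/sex/dose vs 10/sex controls, dosed at low and high levels; retro-orbital plasma taken under isoflurane on days 7, 14 and 28 after 16-20 h fast. Polar and non-polar fractions profiled by GC-MS (derivatised) and LC-MS/MS (MRM plus full scan), normalised to pool samples; Welch t-test by sex and day gives p-values and median ratios.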

[1] = female rats, fh7 (study day 7), Table 3
[2] = female rats, fh14 (study day 14), Table 3
[3] = female rats, fh28 (study day 28), Table 3
[4] = male rats, mh7 (study day 7), Table 4
[5] = male rats, mh14 (study day 14), Table 4
[6] = male rats, mh28 (study day 28), Table 4
[7] = female rats, fh7 (study day 7), Table 1
[8] = female rats, fh14 (study day 14), Table 1
[9] = female rats, fh28 (study day 28), Table 1

CCC(CC)Nc1c([N+](=O)[O-])cc(C)c(C)c1[N+](=O)[O-] [Pendimethalin]
Arachidonic acid (C20:cis[58,11,14]4) [1]: 2.07
Behenic acid (C22:0) [1]: 2.05
Cholesterol [1]: 2.09
Cysteine [1]: 0.52
Docosahexaenoic acid (C22:cis[4,7,10,13,16,19]6) [1]: 1.85
Dodecanol [1]: 1.24
Eicosanoic acid (C20:0) [1]: 1.52
Glycerol phosphate [1]: 1.91
Heptadecanoic acid (C17:0) [1]: 1.35
Linoleic acid (C18:cis[9,12]2) [1]: 1.38
Nervonic acid C24:(cis[15]1) [1]: 3.51
Palmitic acid (C16:0) [1]: 1.49
Sphingomyelin (d18:1, C16:0) [1]: 2.01
Stearic acid (C18:0) [1]: 1.86
Threonic acid [1]: 1.85
dihomo-gamma-Linolenic acid (C20:cis[8,11,14]3) [1]: 1.77
erythro-Sphingosine [1]: 3.26
gamma-Linolenic acid (C18:cis[6,9,12]3) [1]: 1.61
myo-Inositol-2-phosphate [1]: 2.82
threo-Sphingosine [1]: 2.95
Arachidonic acid (C20:cis[58,11,14]4) [2]: 2.24
Behenic acid (C22:0) [2]: 1.89
Cholesterol [2]: 2.17
Cysteine [2]: 0.56
Docosahexaenoic acid (C22:cis[4,7,10,13,16,19]6) [2]: 1.82
Dodecanol [2]: 1.31
Eicosanoic acid (C20:0) [2]: 1.82
Glycerol phosphate [2]: 1.93
Heptadecanoic acid (C17:0) [2]: 1.56
Linoleic acid (C18:cis[9,12]2) [2]: 1.63
Nervonic acid C24:(cis[15]1) [2]: 2.62
Palmitic acid (C16:0) [2]: 1.81
Sphingomyelin (d18:1, C16:0) [2]: 1.64
Stearic acid (C18:0) [2]: 1.97
Threonic acid [2]: 1.79
dihomo-gamma-Linolenic acid (C20:cis[8,11,14]3) [2]: 3.05
erythro-Sphingosine [2]: 2.60
gamma-Linolenic acid (C18:cis[6,9,12]3) [2]: 2.29
myo-Inositol-2-phosphate [2]: 2.74
threo-Sphingosine [2]: 2.67
Arachidonic acid (C20:cis[58,11,14]4) [3]: 2.31
Behenic acid (C22:0) [3]: 1.94
Cholesterol [3]: 2.44
Cysteine [3]: 0.95
Docosahexaenoic acid (C22:cis[4,7,10,13,16,19]6) [3]: 1.85
Dodecanol [3]: 1.31
Eicosanoic acid (C20:0) [3]: 1.61
Glycerol phosphate [3]: 2.06
Heptadecanoic acid (C17:0) [3]: 1.63
Linoleic acid (C18:cis[9,12]2) [3]: 1.36
Nervonic acid C24:(cis[15]1) [3]: 2.54
Palmitic acid (C16:0) [3]: 1.67
Sphingomyelin (d18:1, C16:0) [3]: 1.58
Stearic acid (C18:0) [3]: 2.12
Threonic acid [3]: 2.05
dihomo-gamma-Linolenic acid (C20:cis[8,11,14]3) [3]: 2.43
erythro-Sphingosine [3]: 2.81
gamma-Linolenic acid (C18:cis[6,9,12]3) [3]: 2.57
myo-Inositol-2-phosphate [3]: 2.66
threo-Sphingosine [3]: 2.49
Behenic acid (C22:0) [4]: 1.94
Cholesterol [4]: 1.67
Citrate [4]: 0.86
Cytosine [4]: 0.79
Galactose, lipid fraction [4]: 1.81
Glycerol phosphate [4]: 2.06
Glycine [4]: 1.11
Lignoceric acid (C24:0) [4]: 2.32
Mannose [4]: 1.31
Nervonic acid C24:(cis[15]1) [4]: 2.90
Phospha-tidylcholine (C18:0, 18:2) [4]: 1.26
Sphingomyelin (d18:1, C16:0) [4]: 2.10
Stearic acid (C18:0) [4]: 1.64
Threonic acid [4]: 1.39
dihomo-gamma-Linolenic acis (C20:cis[8,11,14]3) [4]: 2.92
erythro-Sphingosine [4]: 2.78
myo-Inositol-2-phosphate [4]: 3.25
threo-Sphingosine [4]: 2.96
Behenic acid (C22:0) [5]: 1.90
Cholesterol [5]: 2.03
Citrate [5]: 0.83
Cytosine [5]: 0.92
Galactose, lipid fraction [5]: 2.03
Glycerol phosphate [5]: 2.38
Glycine [5]: 1.15
Lignoceric acid (C24:0) [5]: 2.93
Mannose [5]: 1.39
Nervonic acid C24:(cis[15]1) [5]: 2.99
Phospha-tidylcholine (C18:0, 18:2) [5]: 1.25
Sphingomyelin (d18:1, C16:0) [5]: 1.97
Stearic acid (C18:0) [5]: 2.28
Threonic acid [5]: 1.47
dihomo-gamma-Linolenic acis (C20:cis[8,11,14]3) [5]: 3.53
erythro-Sphingosine [5]: 3.33
myo-Inositol-2-phosphate [5]: 3.57
threo-Sphingosine [5]: 3.52
Behenic acid (C22:0) [6]: 1.79
Cholesterol [6]: 2.29
Citrate [6]: 0.87
Cytosine [6]: 0.81
Galactose, lipid fraction [6]: 2.23
Glycerol phosphate [6]: 2.34
Glycine [6]: 1.32
Lignoceric acid (C24:0) [6]: 2.42
Mannose [6]: 1.40
Nervonic acid C24:(cis[15]1) [6]: 3.07
Phospha-tidylcholine (C18:0, 18:2) [6]: 1.32
Sphingomyelin (d18:1, C16:0) [6]: 2.03
Stearic acid (C18:0) [6]: 2.12
Threonic acid [6]: 1.85
dihomo-gamma-Linolenic acis (C20:cis[8,11,14]3) [6]: 2.76
erythro-Sphingosine [6]: 2.69
myo-Inositol-2-phosphate [6]: 2.79
threo-Sphingosine [6]: 2.73

CCC1(c2ccccc2)C(=O)NC(=O)NC1=O [Phenobarbital sodium]
Behenic acid (C22:0) [4]: 1.03
Cholesterol [4]: 1.16
Citrate [4]: 0.89
Cytosine [4]: 1.06
Galactose, lipid fraction [4]: 1.12
Glycerol phosphate [4]: 1.05
Glycine [4]: 0.95
Lignoceric acid (C24:0) [4]: 1.21
Mannose [4]: 1.08
Nervonic acid C24:(cis[15]1) [4]: 1.27
Phospha-tidylcholine (C18:0, 18:2) [4]: 1.13
Sphingomyelin (d18:1, C16:0) [4]: 1.30
Stearic acid (C18:0) [4]: 0.99
Threonic acid [4]: 1.86
dihomo-gamma-Linolenic acis (C20:cis[8,11,14]3) [4]: 1.06
erythro-Sphingosine [4]: 1.39
myo-Inositol-2-phosphate [4]: 1.26
threo-Sphingosine [4]: 1.39
Behenic acid (C22:0) [5]: 1.11
Cholesterol [5]: 1.09
Citrate [5]: 0.93
Cytosine [5]: 1.07
Galactose, lipid fraction [5]: 1.18
Glycerol phosphate [5]: 1.04
Glycine [5]: 1.18
Lignoceric acid (C24:0) [5]: 1.18
Mannose [5]: 1.05
Nervonic acid C24:(cis[15]1) [5]: 1.77
Phospha-tidylcholine (C18:0, 18:2) [5]: 1.14
Sphingomyelin (d18:1, C16:0) [5]: 1.55
Stearic acid (C18:0) [5]: 1.19
Threonic acid [5]: 1.95
dihomo-gamma-Linolenic acis (C20:cis[8,11,14]3) [5]: 1.03
erythro-Sphingosine [5]: 1.56
myo-Inositol-2-phosphate [5]: 1.16
threo-Sphingosine [5]: 1.61
Behenic acid (C22:0) [6]: 1.21
Cholesterol [6]: 1.18
Citrate [6]: 0.96
Cytosine [6]: 0.98
Galactose, lipid fraction [6]: 1.06
Glycerol phosphate [6]: 1.05
Glycine [6]: 1.12
Lignoceric acid (C24:0) [6]: 1.25
Mannose [6]: 1.09
Nervonic acid C24:(cis[15]1) [6]: 1.65
Phospha-tidylcholine (C18:0, 18:2) [6]: 1.05
Sphingomyelin (d18:1, C16:0) [6]: 1.44
Stearic acid (C18:0) [6]: 1.09
Threonic acid [6]: 1.88
dihomo-gamma-Linolenic acis (C20:cis[8,11,14]3) [6]: 0.96
erythro-Sphingosine [6]: 1.65
myo-Inositol-2-phosphate [6]: 1.15
threo-Sphingosine [6]: 1.50

N#Cc1ccc(CC(=NNC(=O)Nc2ccc(OC(F)(F)F)cc2)c2cccc(C(F)(F)F)c2)cc1 (mixture of isomers) [Metaflumizone]
5-O-Methylsphingosine [7]: 0.99
Asparagine [7]: 0.75
Behenic acid (C22:0) [7]: 1.12
Citrate [7]: 0.84
Docosahexaenoic acid (C22:cis[4,7,10,13,16]6) [7]: 1.52
Glycine [7]: 0.93
Ketoleucine [7]: 0.97
Lysophosphatidylcholine (C18:2) [7]: 0.88
Phosphatidylcholine (C16:1, C18:2) [7]: 1.14
Phosphatidylcholine (C18:2, C20:4) [7]: 1.14
Pyruvate [7]: 0.64
Tricosanoic acid (C23:0) [7]: 1.28
erythro-Sphingosine [7]: 1.25
threo-Sphingosine [7]: 1.29
Sphingomyelin (d18:1, C16:0) (female rats, fh7 (study day 7), Table 1, first listing): 1.29
Sphingomyelin (d18:1, C16:0) (female rats, fh7 (study day 7), Table 1, second listing): 0.97
5-O-Methylsphingosine [8]: 1.42
Asparagine [8]: 0.57
Behenic acid (C22:0) [8]: 1.28
Citrate [8]: 0.62
Docosahexaenoic acid (C22:cis[4,7,10,13,16]6) [8]: 2.54
Glycine [8]: 0.97
Ketoleucine [8]: 0.81
Lysophosphatidylcholine (C18:2) [8]: 1.20
Phosphatidylcholine (C16:1, C18:2) [8]: 1.40
Phosphatidylcholine (C18:2, C20:4) [8]: 1.16
Pyruvate [8]: 0.54
Tricosanoic acid (C23:0) [8]: 1.41
erythro-Sphingosine [8]: 1.50
threo-Sphingosine [8]: 1.27
Sphingomyelin (d18:1, C16:0) (female rats, fh14 (study day 14), Table 1, first listing): 1.45
Sphingomyelin (d18:1, C16:0) (female rats, fh14 (study day 14), Table 1, second listing): 1.10
5-O-Methylsphingosine [9]: 2.07
Asparagine [9]: 1.17
Behenic acid (C22:0) [9]: 2.03
Citrate [9]: 0.88
Docosahexaenoic acid (C22:cis[4,7,10,13,16]6) [9]: 1.98
Glycine [9]: 1.63
Ketoleucine [9]: 0.81
Lysophosphatidylcholine (C18:2) [9]: 1.11
Phosphatidylcholine (C16:1, C18:2) [9]: 1.86
Phosphatidylcholine (C18:2, C20:4) [9]: 1.20
Pyruvate [9]: 0.72
Tricosanoic acid (C23:0) [9]: 2.56
erythro-Sphingosine [9]: 1.82
threo-Sphingosine [9]: 1.89
Sphingomyelin (d18:1, C16:0) (female rats, fh28 (study day 28), Table 1, first listing): 1.38
Sphingomyelin (d18:1, C16:0) (female rats, fh28 (study day 28), Table 1, second listing): 1.15
